“And” between values parts separate entries of the source, which are not always exact repeats. Equal values may be shown once.
Experiments:
Format in all cases: in vivo
[1] = test system: German cockroaches (Blatella Germanica); test: Cockroach repellency screening on partially treated formica surface (Example 2); conditions: 20 mg/m^2 on formica; for Number of Cockroaches present, Treated Section / Number of Cockroaches present, Untreated Section / Number of Cockroaches, Dead: single replicates (n = 20); for Number of Cockroaches present, Treated Section, Total / Number of Cockroaches present, Untreated Section, Total / Number of Cockroaches, Dead, Total: total of 4 replicates (80); for Percentage Dead / Percentage Present, Treated Section / Percentage Present, Untreated Section / Percentage Present, Treated Section, Average / Percentage Present, Untreated Section, Average: cockroaches; for Percentage Present, Treated Section, Average / Percentage Present, Untreated Section, Average: average of days 1, 2 and 3
Experimental: The effectiveness of compounds of formula I as an insect repellent was determined using German cockroaches exposed to a formica surface partially treated/partially untreated with a test compound of formula I. The study was conducted in an air conditioned laboratory at a temperature of 22°±2° C. under a normal day/night cycle, using German cockroaches (Blatella Germanica) of mixed sex and age. The study was conducted over a 3 day period and the repellent effectiveness assessed 1, 2 and 3 days after cockroach introduction. A rectangle of formica 40 cm×30 cm was treated at 20 mg/m^2 with a test compound of formula I. This was achieved by soaking a paper wipe (Rag on a Roll ca 20 cm×20 cm) in a solution of the test compound in ethanol, squeezing out the excess liquid and wiping over the surface to give the required coverage. This was checked by weighing the cloth after application. The surface was allowed to dry. A similar rectangle was wiped with ethanol alone (untreated surface). The treated formica rectangle was placed on the bench and a plastic container was placed on the rectangle. This had been treated with fluon to prevent cockroach escape. Two sheets of formica (10 cm×10 cm) were placed on the formica, one on the treated surface and one on the untreated surface. This acted as a cockroach harbourage. The formica sheet to be used in the treated section was treated at the same rate as the treated formica. The formica was placed on two 1 cm high bottle tops to allow cockroaches access under the formica. 20 German cockroaches were added (5 adults and 15 nymphs) to the centre of the formica. No food and water was supplied for these cockroaches. At 1, 2 and 3 days after cockroach introduction the number of cockroaches under each harbourage was counted. After each count the harbourage position was change to avoid the possibility of […] were replaced and new cockroaches were added to replace any dead cockroaches. The above was repeated 3 times to provide a total of 4 replicates.

[2] = test system: German cockroaches (Blatella Germanica); test: Cockroach repellency in tray with half-treated vinyl, compared with DEET and N-methyl-neodecanamide (Example 3); conditions: cockroaches, 20 mg/m^2 on vinyl
Experimental: The effectiveness of compound 2 (example 1) as an insect repellent was determined using German cockroaches exposed to a formica surface partially treated/partially un-treated, and was directly compared to the repellency of the well known insect repellents DEET (N,N-diethyl-meta-toluamide) and N-methyl-neodecanamide. The study was conducted in an air conditioned laboratory at a temperature of 22°±2° C. under a normal day/night cycle, using German cockroaches (Blatella Germanica) of mixed sex and age. The study was conducted over a 7 days period and the repellent effectiveness was assessed 1, 3, 5 and 7 days after cockroach introduction. Each tray used in the study consisted of a melamine square tray of sides 1.8m×1.8m and 20 cm high walls. The upper part of the wall was provided with electrical strip, which prevented cockroaches escaping. A square of vinyl 90 cm×180 cm was treated with the test compound at 20 mg/m^2. This was achieved by soaking a paper wipe (Rag on a Roll, ca. 20 cm×20 cm) in a solution of the test compound in ethanol, squeezing out the excess liquid and wiping over the surface to give the required coverage. This was checked by weighing the cloth after application. The surface was allowed to dry. The treated vinyl square was placed in one half of the tray. A similar untreated square was placed in the other half of the tray. This square was treated with ethanol alone. Two sheets of formica (30 cm×30 cm) were placed at one corner of each tray, one on the treated surface and one on the untreated surface. This acted as a cockroach harbourage. The formica sheet to be used in the treated section was treated at the same rate as the treated formica. The formica was placed on two 1 cm high bottle tops to allow cockroaches access under the formica. 50 German cockroaches were added (15 adults and 35 nymphs) to the middle of the tray. No food and water was supplied for these cockroaches. At 1, 2, 3 and 7 days after cockroach introduction the number of cockroaches under each harbourage was counted. After each count the harbourage position was change to avoid the possibility of habituation to one location, the harbourages were replaced and new cockroaches were added to replace any dead cockroaches. The above was repeated 3 times to provide a total of 4 replicates.

[3] = test system: Black Ants (Ochetellus sp); test: Ant repellency on half-treated formica (Example 4); conditions: ants, 20 mg/m^2 on formica
Experimental: The effectiveness of compound 2 (example 1) as an insect repellent was determined using ants exposed to a formica surface partially treated/partially untreated with compound 2, and was directly compared to the repellency of the well known insect repellents Farnesol and Dihydrofarnesal.
The study was conducted in an air conditioned laboratory at a temperature of 22°±2° C. under a normal day/night cycle, using Black Ants (Ochetellus sp) of mixed sex and age. The study ws conducted over a 3 day period and the repellent effectiveness assessed 1, 2 and 3 days after ant introduction.
One half of a rectangle of formica 40 cm×30 cm was treated at 20 mg/m^2 with the test compounds. This was achieved by soaking a paper wipe (Rag On A Roll approximately 20 cm×20 cm) in a solution of the test compound in ethanol, squeezing out the excess liquid and wiping over the surface to give the required coverage. This was checked by weighing the cloth after application. The surface was allowed to dry. The other half was wiped with ethanol alone (untreated surface).
The treated formica rectangle was placed on the bench and a glass ring (diameter 20 cm) was placed on the rectangle. This had been treated with fluon to prevent ant escape.
A small plastic container 2 cm in diameter was placed on the formica, one on the treated surface and one on the untreated surface. The plastic container placed on the treated surface had repellent applied in the same way as the treated formica. The plastic container on the untreated surface was wiped with ethanol.
24 hours after treatment (1 day) 20 ants were added to the centre of the formica. No food and water was supplied for these ants. 2 hours after this the number of ants on the treated and untreated surfaces was counted.
The above was repeated 3 times to provide a total of 4 replicates.
The above was repeated at 2 days and 3 days. New ants were used at each time period.

[4] = 1 day after cockroach introduction
[5] = 2 days after cockroach introduction
[6] = 3 days after cockroach introduction

SMILES	Percentage Dead ([1]; 1 day after treatment) [%]	Percentage Present, Treated Section ([1]; 1 day after treatment) [%]	Percentage Present, Untreated Section ([1]; 1 day after treatment) [%]	Percentage Dead ([1]; 2 days after treatment) [%]	Percentage Present, Treated Section ([1]; 2 days after treatment) [%]	Percentage Present, Untreated Section ([1]; 2 days after treatment) [%]	Percentage Dead ([1]; 3 days after treatment) [%]	Percentage Present, Treated Section ([1]; 3 days after treatment) [%]	Percentage Present, Untreated Section ([1]; 3 days after treatment) [%]	Percentage Present, Treated Section, Average [1] [%]	Percentage Present, Untreated Section, Average [1] [%]	also measured
CNC(=O)C1CC(C)CCC1C(C)C (centres unmarked) [Compound 1, N-methyl-p-menthane-3-carboxamide]	0	18.7	81.3	1.2	16.3	82.5	1.2	13.8	85.0	16.3	82.9	Number of Cockroaches present, Treated Section [1, 4]: 5 and 3 and 7 and 0; Number of Cockroaches present, Untreated Section [1, 4]: 15 and 17 and 13 and 20; Number of Cockroaches, Dead [1, 4]: 0; Number of Cockroaches present, Treated Section, Total [1, 4]: 15; Number of Cockroaches present, Untreated Section, Total [1, 4]: 65; Number of Cockroaches, Dead, Total [1, 4]: 0; Number of Cockroaches present, Treated Section [1, 5]: 5 (2×) and 3 and 0; Number of Cockroaches present, Untreated Section [1, 5]: 15 and 17 and 14 and 20; Number of Cockroaches, Dead [1, 5]: 0 (3×) and 1; Number of Cockroaches present, Treated Section, Total [1, 5]: 13; Number of Cockroaches present, Untreated Section, Total [1, 5]: 66; Number of Cockroaches, Dead, Total [1, 5]: 1; Number of Cockroaches present, Treated Section [1, 6]: 4 (2×) and 3 and 0; Number of Cockroaches present, Untreated Section [1, 6]: 16 (3×) and 20; Number of Cockroaches, Dead [1, 6]: 0 (3×) and 1; Number of Cockroaches present, Treated Section, Total [1, 6]: 11; Number of Cockroaches present, Untreated Section, Total [1, 6]: 68; Number of Cockroaches, Dead, Total [1, 6]: 1
CCCNC(=O)C1CC(C)CCC1C(C)C (centres unmarked) [Compound 3, N-propyl-p-menthane-3-carboxamide]	0	16.3	83.7	1.2	6.3	92.5	0	6.3	93.7	9.6	90.0	
CC1CCC(C(C)C)C(C(=O)Nc2ccccc2)C1 (centres unmarked) [Compound 4, N-phenyl-p-menthane-3-carboxamide]	0	46.3	53.7	0	35.0	65.0	1.2	12.5	86.3	31.3	68.3	
CC1CCC(C(C)C)C(C(=O)N(C)C)C1 (centres unmarked) [Compound 5, N,N-dimethyl-p-menthane-3-carboxamide]	0	15.0	85.0	1.2	10.0	88.8	1.2	15.0	83.8	13.3	85.9	
CCN(CC)C(=O)C1CC(C)CCC1C(C)C (centres unmarked) [Compound 6, N,N-diethyl-p-menthane-3-carboxamide]	0	11.3	88.7	0	13.8	86.2	2.5	6.3	91.2	10.5	88.7	
CCN(CC)C(=O)c1cccc(C)c1 [DEET, N,N-diethyl-meta-toluamide, reference compound]												Percentage Dead ([2]; 1 day after treatment): 0.5%; Percentage Present, Treated Section ([2]; 1 day after treatment): 3.0%; Percentage Present, Untreated Section ([2]; 1 day after treatment): 96.5%; Percentage Dead ([2]; 2 days after treatment): 1.5%; Percentage Present, Treated Section ([2]; 2 days after treatment): 2.5%; Percentage Present, Untreated Section ([2]; 2 days after treatment): 96.0%; Percentage Dead ([2]; 3 days after treatment): 0.5%; Percentage Present, Treated Section ([2]; 3 days after treatment): 27.5%; Percentage Present, Untreated Section ([2]; 3 days after treatment): 72.0%; Percentage Dead ([2]; 7 days after treatment): 1.0%; Percentage Present, Treated Section ([2]; 7 days after treatment): 55.0%; Percentage Present, Untreated Section ([2]; 7 days after treatment): 44.0%
CC(C)=CCC/C(C)=C/CCC(C)CC=O (centres unmarked) [Dihydrofarnesal, reference compound]												Percentage Dead ([3]; 1 day after treatment): 0%; Percentage Present, Treated Section ([3]; 1 day after treatment): 20.0%; Percentage Present, Untreated Section ([3]; 1 day after treatment): 80.0%; Percentage Dead ([3]; 2 days after treatment): 0%; Percentage Present, Treated Section ([3]; 2 days after treatment): 21.2%; Percentage Present, Untreated Section ([3]; 2 days after treatment): 78.8%; Percentage Dead ([3]; 3 days after treatment): 0%; Percentage Present, Treated Section ([3]; 3 days after treatment): 12.5%; Percentage Present, Untreated Section ([3]; 3 days after treatment): 87.5%; Percentage Dead, Average ([3]; average of days 1, 2 and 3): 0%; Percentage Present, Treated Section, Average ([3]; average of days 1, 2 and 3): 17.9%; Percentage Present, Untreated Section, Average ([3]; average of days 1, 2 and 3): 82.1%; Percentage Present, Treated Section, Average ([3]; average of days 1, 2 and 3, listed as Dihydrofarnesol): approximately 17%
